Source: US11351173B2, “Substituted pyrrolo[1,2-a]pyrimidines and their use in the treatment of medical disorders” (Bial—R&D Investments, S.A., priority 2014, dated 2022)
In brackets after ≈: the same amount, converted by molar mass.

Experiments:
[1] = biological target: T1, glucocerebrosidase (Gcase) (Homo sapiens, UniProt P04062); test: Glucocerebrosidase (Gcase) activation assay, 4-methylumbelliferyl-beta-D-glucopyranoside substrate, fluorescence readout; format: biochemical; conditions: for activation at 0.1 µM / Percent Gcase Activation, 0.1 μM Test Compound: test compound at 0.1 μM; for activation at 0.1 µM: read-out: Percent Gcase Activation, 0.1 μM Test Compound; for activation at 1 µM / Percent Gcase Activation, 1 μM Test Compound: test compound at 1.0 μM; for activation at 1 µM: read-out: Percent Gcase Activation, 1 μM Test Compound
T1 construct: micellar solution containing 10 nM GCase and 100 nM saposin C
T1 sequence (P04062 40-536): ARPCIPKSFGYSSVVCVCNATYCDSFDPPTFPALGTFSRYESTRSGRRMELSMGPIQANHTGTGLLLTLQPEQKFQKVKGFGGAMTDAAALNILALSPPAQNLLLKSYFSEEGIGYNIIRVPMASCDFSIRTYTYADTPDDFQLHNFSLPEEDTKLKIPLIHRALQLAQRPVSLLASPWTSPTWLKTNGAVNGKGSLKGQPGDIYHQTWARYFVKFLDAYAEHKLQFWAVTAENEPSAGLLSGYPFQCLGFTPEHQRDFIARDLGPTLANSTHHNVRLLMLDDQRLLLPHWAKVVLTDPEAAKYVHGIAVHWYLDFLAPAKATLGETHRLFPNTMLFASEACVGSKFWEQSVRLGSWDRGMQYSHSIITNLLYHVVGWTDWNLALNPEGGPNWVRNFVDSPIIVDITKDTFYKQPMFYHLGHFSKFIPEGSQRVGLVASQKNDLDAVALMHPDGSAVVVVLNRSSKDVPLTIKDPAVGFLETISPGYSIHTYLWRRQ
In short: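 Test compounds are first screened at 1.0 and 0.1 μM final, then titrated in 8 points (3-fold from 5 μM) against human GCase with saposin C in phosphatidylserine/triton X-100 micelles at pH 4.7. Reactions run 15 min at room temperature, with fluorescence read at 365/440 nm.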

[2] = Compound solubility in water; conditions: water; for solubility: Compound Solubility in Water

Cc1cc(C)n2ccc(C(=O)Nc3ccc(N4CCCCC4)cc3)c2n1 [III-17]
activation at 0.1 µM [1]: < 10% | activation at 1 µM [1]: 30 to 60% | solubility [2]: < 0.1 µg/mL

Cc1cc(C)n2ccc(C(=O)NC3CCC4(CCCO4)c4ccccc43)c2n1 (stereo not drawn) [III-143]
activation at 0.1 µM [1]: > 20% | activation at 1 µM [1]: > 60% | solubility [2]: 3.3 µg/mL (≈ 8.79 µM)

CCCCCOC1CCC(NC(=O)c2ccn3c(C)cc(C)nc23)CC1 (stereo not drawn) [III-22]
activation at 0.1 µM [1]: > 20% | activation at 1 µM [1]: > 60% | solubility [2]: 0.5 µg/mL (≈ 1.4 µM)

C#Cc1ccc(NC(=O)c2ccn3c(C)cc(C)nc23)c(CO)c1 [III-213]
activation at 0.1 µM [1]: < 10% | activation at 1 µM [1]: < 30% | solubility ([2]; in water): 0.7 µg/mL (≈ 2.19 µM)

Cc1cc(C)n2ccc(C(=O)Nc3ccc(-c4ccncc4)cc3)c2n1 [III-11]
activation at 0.1 µM [1]: 10 to 20% | activation at 1 µM [1]: 30 to 60% | solubility [2]: 0.01 µg/mL (≈ 0.0292 µM)

Cc1cc(C)n2ccc(C(=O)N[C@H]3CC[C@H](Oc4cccs4)CC3)c2n1 [III-190]
activation at 0.1 µM [1]: 10 to 20% | activation at 1 µM [1]: > 60% | solubility [2]: 4.2 µg/mL (≈ 11.4 µM)

CC[C@H](NC(=O)c1ccn2c(C)cc(C)nc12)c1ccccc1 [III-164]
activation at 0.1 µM [1]: > 20% | activation at 1 µM [1]: > 60% | solubility [2]: 1.4 µg/mL (≈ 4.55 µM)

CCOCCO[C@H]1CC[C@H](NC(=O)c2ccn3c(C)cc(C)nc23)CC1 [III-102]
activation at 0.1 µM [1]: < 10% | activation at 1 µM [1]: < 30% | solubility [2]: 38.3 µg/mL (≈ 107 µM)

CNc1cc(C)n2ccc(C(=O)N[C@H]3CC[C@H](OCC(C)C)CC3)c2n1 [III-71]
activation at 0.1 µM [1]: > 20% | activation at 1 µM [1]: > 60% | solubility [2]: 1 µg/mL (≈ 2.79 µM)

Cc1cc(C)n2ccc(C(=O)Nc3ccc(-c4cnn(C)c4)nc3)c2n1 [III-283]
Percent Gcase Activation, 0.1 μM Test Compound [1]: * (less than 10% Gcase activation) | Percent Gcase Activation, 1 μM Test Compound [1]: + (less than 30% Gcase activation) | solubility ([2]; in water): 0.2 µg/mL (≈ 0.577 µM)

CCC(C)(NC(=O)c1ccn2c(C)cc(C)nc12)c1ccccc1 (stereo not drawn) [III-287]
activation at 0.1 µM [1]: > 20% | activation at 1 µM [1]: > 60% | solubility ([2]; in water): 1.6 µg/mL (≈ 4.98 µM)

Cc1cc(C)n2ccc(C(=O)NC3CCCCc4ccccc43)c2n1 (stereo not drawn) [III-226]
activation at 0.1 µM [1]: > 20% | activation at 1 µM [1]: > 60% | solubility ([2]; in water): 1.6 µg/mL (≈ 4.8 µM)

Cc1cc(C)n2ccc(C(=O)NC3CCCC4(CCCCO4)C3)c2n1 (stereo not drawn) [III-81]
Percent Gcase Activation, 0.1 μM Test Compound [1]: * (less than 10% Gcase activation) | Percent Gcase Activation, 1 μM Test Compound [1]: + (less than 30% Gcase activation) | Compound Solubility in Water [2]: 9.8 µg/mL

CCCCO[C@H]1C[C@H](NC(=O)c2ccn3c(C)cc(C)nc23)C1 [III-198]
activation at 0.1 µM [1]: 10 to 20% | activation at 1 µM [1]: > 60% | solubility [2]: 13.1 µg/mL (≈ 41.5 µM)

Cc1cc(C)n2ccc(C(=O)NC3(C)CCOc4ccc(F)c(F)c43)c2n1 (stereo not drawn) [III-173]
activation at 0.1 µM [1]: 10 to 20% | activation at 1 µM [1]: > 60% | solubility [2]: 0.06 µg/mL (≈ 0.162 µM)

COCc1cc(C)n2ccc(C(=O)Nc3ccc(-c4cocn4)cc3)c2n1 [III-50]
activation at 0.1 µM [1]: > 20% | activation at 1 µM [1]: > 60% | solubility [2]: 0.3 µg/mL (≈ 0.828 µM)

Cc1cc(C)n2ccc(C(=O)NC3CCc4ccccc43)c2n1 (stereo not drawn) [III-216]
activation at 0.1 µM [1]: > 20% | activation at 1 µM [1]: > 60% | solubility ([2]; in water): 1.8 µg/mL (≈ 5.89 µM)

Cc1cc(C)n2ccc(C(=O)NC3CCOc4ccc(F)cc43)c2n1 (stereo not drawn) [III-225]
activation at 0.1 µM [1]: > 20% | activation at 1 µM [1]: > 60% | solubility ([2]; in water): 1.8 µg/mL (≈ 5.3 µM)

Cc1cc(C)n2ccc(C(=O)NC3(C)CCOc4ccccc43)c2n1 (stereo not drawn) [III-181]
activation at 0.1 µM [1]: > 20% | activation at 1 µM [1]: > 60% | solubility [2]: 1.8 µg/mL (≈ 5.37 µM)

Cc1cc(C)n2ccc(C(=O)Nc3ccc(-c4cccs4)nc3)c2n1 [III-275]
Percent Gcase Activation, 0.1 μM Test Compound [1]: *** (greater than 20% Gcase activation) | Percent Gcase Activation, 1 μM Test Compound [1]: +++ (Gcase activation greater than 60%) | solubility ([2]; in water): 0.01 µg/mL (≈ 0.0287 µM)

Cc1cc(Cl)nc2c(C(=O)NC3c4ccccc4C4CC3C4)ccn12 (stereo not drawn) [III-69]
activation at 0.1 µM [1]: > 20% | activation at 1 µM [1]: > 60% | solubility [2]: 0.06 µg/mL (≈ 0.171 µM)

CCCCCO[C@H]1CC[C@@H](NC(=O)c2ccn3c(C)cc(C)nc23)C1 [III-179]
activation at 0.1 µM [1]: < 10% | activation at 1 µM [1]: > 60% | solubility [2]: 12.3 µg/mL (≈ 35.8 µM)

CC[C@H](C)O[C@H]1CC[C@H](NC(=O)c2ccn3c(C)cc(C)nc23)CC1 [III-125]
activation at 0.1 µM [1]: 10 to 20% | activation at 1 µM [1]: > 60% | solubility [2]: 11.1 µg/mL (≈ 32.3 µM)

Cc1cc(C)n2ccc(C(=O)N[C@H]3CC[C@H](OCC(C)(C)C)CC3)c2n1 [III-93]
activation at 0.1 µM [1]: > 20% | activation at 1 µM [1]: > 60% | solubility [2]: 6.2 µg/mL (≈ 17.3 µM)

CCCCCO[C@H]1CC[C@H](NC(=O)c2ccn3c(C(F)F)cc(C(F)F)nc23)CC1 [III-25]
activation at 0.1 µM [1]: > 20% | activation at 1 µM [1]: > 60% | solubility [2]: 0.4 µg/mL (≈ 0.931 µM)

Cc1cc(C)n2ccc(C(=O)Nc3cccc4c3CCC4)c2n1 [III-220]
activation at 0.1 µM [1]: > 20% | activation at 1 µM [1]: > 60% | solubility ([2]; in water): 0.2 µg/mL (≈ 0.655 µM)

Cc1cc(C)n2ccc(C(=O)NC3CCC4(CCCO4)CC3)c2n1 (stereo not drawn) [III-142]
Percent Gcase Activation, 0.1 μM Test Compound [1]: * (less than 10% Gcase activation) | Percent Gcase Activation, 1 μM Test Compound [1]: + (less than 30% Gcase activation) | Compound Solubility in Water [2]: 17.4 µg/mL

Cc1cc(C)n2ccc(C(=O)Nc3ccc(-c4cocn4)cc3)c2n1 [III-1]
activation at 0.1 µM [1]: > 20% | activation at 1 µM [1]: > 60% | solubility [2]: < 1.5 µg/mL

Cc1cc(C)n2ccc(C(=O)N[C@H]3CC[C@H](OC(C)(C)C)CC3)c2n1 [III-289]
activation at 0.1 µM [1]: 10 to 20% | activation at 1 µM [1]: > 60% | solubility ([2]; in water): 17.1 µg/mL (≈ 49.8 µM)

C#Cc1cccc(C(C)(C)NC(=O)c2ccn3c(C)cc(COC)nc23)c1 [III-64]
activation at 0.1 µM [1]: > 20% | activation at 1 µM [1]: > 60% | solubility [2]: 0.5 µg/mL (≈ 1.38 µM)

Cc1cc(C(F)F)n2ccc(C(=O)NC3CCCc4ccccc43)c2n1 (stereo not drawn) [III-28]
activation at 0.1 µM [1]: > 20% | activation at 1 µM [1]: > 60% | solubility [2]: 0.7 µg/mL (≈ 1.97 µM)

Cc1cc(C)n2ccc(C(=O)NC3CCOc4ccc(-c5ncco5)cc43)c2n1 (stereo not drawn) [III-207]
activation at 0.1 µM [1]: < 10% | activation at 1 µM [1]: 30 to 60% | solubility ([2]; in water): 1 µg/mL (≈ 2.57 µM)

[2H]C1(NC(=O)c2ccn3c(C)cc(C)nc23)CCCc2ccccc21 (stereo not drawn) [III-131]
activation at 0.1 µM [1]: > 20% | activation at 1 µM [1]: > 60% | solubility [2]: 3.4 µg/mL (≈ 10.6 µM)

Cc1cc(Br)nc2c(C(=O)Nc3ccc(-c4cocn4)cc3)ccn12 [III-40]
activation at 0.1 µM [1]: 10 to 20% | activation at 1 µM [1]: > 60% | solubility [2]: 0.3 µg/mL (≈ 0.755 µM)

Cc1cc(C)n2ccc(C(=O)NC3Cc4ccc(-c5ncco5)cc4C3)c2n1 (stereo not drawn) [III-242]
activation at 0.1 µM [1]: 10 to 20% | activation at 1 µM [1]: > 60% | solubility ([2]; in water): 1.3 µg/mL (≈ 3.49 µM)

Cc1cc(C)n2c(F)cc(C(=O)Nc3ccc(-c4cocn4)cc3)c2n1 [III-271]
activation at 0.1 µM [1]: > 20% | activation at 1 µM [1]: > 60% | solubility ([2]; in water): 0.7 µg/mL (≈ 2 µM)

COCc1cc(C(F)F)nc2c(C(=O)NC3(C)CCOc4cc(F)c(F)cc43)ccn12 (stereo not drawn) [III-57]
activation at 0.1 µM [1]: 10 to 20% | activation at 1 µM [1]: > 60% | solubility [2]: 1.5 µg/mL (≈ 3.43 µM)

COC1CCc2ccc(NC(=O)c3ccn4c(C)cc(C)nc34)cc21 (stereo not drawn) [III-119]
activation at 0.1 µM [1]: > 20% | activation at 1 µM [1]: > 60% | solubility [2]: 2.6 µg/mL (≈ 7.75 µM)

Cc1cc(C)n2ccc(C(=O)NC3CCCc4ccccc43)c2n1 (stereo not drawn) [III-167]
activation at 0.1 µM [1]: > 20% | activation at 1 µM [1]: > 60% | solubility [2]: 0.8 µg/mL (≈ 2.5 µM)

CCCCO[C@H]1CC[C@H](NC(=O)c2ccn3c(COC)cc(CCC)nc23)CC1 [III-269]
activation at 0.1 µM [1]: 10 to 20% | activation at 1 µM [1]: > 60% | solubility ([2]; in water): 0.8 µg/mL (≈ 1.99 µM)
